Measured values: ChEMBL document CHEMBL1129847, “2-[(substituted)phenyl]-5-[1-(2-phenylazacycloheptyl)methyl]-1H-pyrroles with high affinity and selectivity for the dopamine D3 receptor” (Bioorg Med Chem Lett, 1997)

Columns and labels:
D(3) dopamine receptor = D(3) dopamine receptor (Homo sapiens, UniProt P35462); experiment: Ability to displace [125I]-sulpiride from human Dopamine receptor D3, expressed in CHO cells; format: cell-based
D(2) dopamine receptor = D(2) dopamine receptor (Homo sapiens, UniProt P14416); experiment: Ability to displace [125I]sulpiride from human Dopamine receptor D2, expressed in CHO cells; format: cell-based
[1] = biological target: Dopamine receptors; D2 & D3 (Homo sapiens) (UniProt P14416+P35462); experiment: Ratio of human dopamine D3 receptor to that of human dopamine D2 receptor was evaluated; format: protein assay

Sequence of D(3) dopamine receptor (P35462 whole entry): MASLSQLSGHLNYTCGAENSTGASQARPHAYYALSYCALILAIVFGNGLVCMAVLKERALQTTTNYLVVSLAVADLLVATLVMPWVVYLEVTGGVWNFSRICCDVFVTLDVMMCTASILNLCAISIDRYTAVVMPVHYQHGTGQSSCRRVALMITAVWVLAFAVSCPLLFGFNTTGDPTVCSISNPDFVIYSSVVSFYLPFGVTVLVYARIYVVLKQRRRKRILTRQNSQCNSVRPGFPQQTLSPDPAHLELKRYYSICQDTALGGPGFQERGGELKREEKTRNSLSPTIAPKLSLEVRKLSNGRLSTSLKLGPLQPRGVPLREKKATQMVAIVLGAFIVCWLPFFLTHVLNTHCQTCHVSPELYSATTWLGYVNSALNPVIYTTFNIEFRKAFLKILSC
Sequence of D(2) dopamine receptor (P14416 whole entry): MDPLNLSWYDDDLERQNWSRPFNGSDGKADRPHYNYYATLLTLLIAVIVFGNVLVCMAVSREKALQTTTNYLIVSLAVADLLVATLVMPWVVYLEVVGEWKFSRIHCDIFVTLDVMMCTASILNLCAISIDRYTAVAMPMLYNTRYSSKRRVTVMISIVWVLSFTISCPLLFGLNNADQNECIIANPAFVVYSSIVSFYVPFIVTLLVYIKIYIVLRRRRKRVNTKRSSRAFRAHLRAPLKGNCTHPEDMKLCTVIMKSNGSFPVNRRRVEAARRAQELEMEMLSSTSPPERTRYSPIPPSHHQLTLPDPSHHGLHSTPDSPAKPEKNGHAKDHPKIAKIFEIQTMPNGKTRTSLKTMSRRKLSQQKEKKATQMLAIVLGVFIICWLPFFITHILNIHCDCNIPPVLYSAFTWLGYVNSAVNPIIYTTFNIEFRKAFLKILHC

Compound | Ki (D(3) dopamine receptor) [nM] | Ki (D(2) dopamine receptor) [nM] | Selectivity [1]
CCN(Cc1ccccc1)S(=O)(=O)c1ccc(OC)c(-c2ccc(CN3CCCCCC3c3ccccc3)[nH]2)c1 (stereo unspecified) | 6.31 | 501 | 80
COc1ccc(S(N)(=O)=O)cc1-c1ccc(CN2CCCCCC2c2ccccc2)[nH]1 (stereo unspecified) | 39.8 | 398 | 10
COc1ccc(S(=O)(=O)N(C)c2ccccc2)cc1-c1ccc(CN2CCCCC[C@H]2c2ccccc2)[nH]1 | 15.8 | 1580 | 100
COc1ccc(S(=O)(=O)C(C)C)cc1-c1ccc(CN2CCCCCC2c2ccccc2)[nH]1 (stereo unspecified) | 5.01 | 200 | 40
COc1ccc(S(=O)(=O)Cc2ccccc2)cc1-c1ccc(CN2CCCCCC2c2ccccc2)[nH]1 (stereo unspecified) | 3.98 | 126 | 30
COc1ccc(S(=O)(=O)N2CCCc3ccccc32)cc1-c1ccc(CN2CCCCCC2c2ccccc2)[nH]1 (stereo unspecified) | 6.31 | 1000 | 150
COc1ccc(S(=O)(=O)Oc2ccccc2)cc1-c1ccc(CN2CCCCCC2c2ccccc2)[nH]1 (stereo unspecified) | 10 | 1000 | 100
CCS(=O)(=O)c1ccc(OC)c(-c2ccc(CN3CCCCCC3c3ccccc3)[nH]2)c1 (stereo unspecified) | – | – | 30
COc1ccc(S(=O)(=O)Nc2ccccc2)cc1-c1ccc(CN2CCCCCC2c2ccccc2)[nH]1 (stereo unspecified) | 79.4 | 631 | 8
COc1ccc(S(=O)(=O)N(C)c2ccccc2)cc1-c1ccc(CN2CCCCCC2c2ccccc2)[nH]1 (stereo unspecified) | 6.31 | 631 | 100

Next, values leading:

Ki (D(3) dopamine receptor) [nM] | Ki (D(2) dopamine receptor) [nM] | Selectivity [1] | Compound
3.98 | 100 | 25 | CCS(=O)(=O)c1ccc(OC)c(-c2ccc(CN3CCCCC[C@H]3c3ccccc3)[nH]2)c1
2 | 100 | 50 | COc1ccc(S(=O)(=O)N(C)C)cc1-c1ccc(CN2CCCCCC2c2ccccc2)[nH]1 (stereo unspecified)
3.98 | 501 | 125 | COc1ccc(S(=O)(=O)N(C)c2ccccc2)cc1-c1ccc(CN2CCCCC[C@@H]2c2ccccc2)[nH]1
1.58 | 100 | 60 | COc1ccc(S(=O)(=O)N2CCOCC2)cc1-c1ccc(CN2CCCCCC2c2ccccc2)[nH]1 (stereo unspecified)
2 | 200 | 100 | COc1ccc(S(=O)(=O)N2CCc3ccccc3C2)cc1-c1ccc(CN2CCCCCC2c2ccccc2)[nH]1 (stereo unspecified)
0.794 | 25.1 | 30 | CCS(=O)(=O)c1ccc(OC)c(-c2ccc(CN3CCCCC[C@@H]3c3ccccc3)[nH]2)c1
